Data set [1] relates to HepG2 cell line. Description: MTS cytotoxicity assay. It is filed as cell-based, human. The method, then: (§1) Briefly, Eagle’s minimum essential medium (Gibco, Thermo Fisher Scientific, Waltham, MA, USA) was used to culture the cells. The following supplements were added to the medium: L-glutamine (2 mM; Sigma-Aldrich, St. Louis, MO, USA), penicillin (100 U/mL; Sigma-Aldrich, St. Louis, MO, USA), streptomycin (100 μg/mL; Sigma-Aldrich, St. Louis, MO, USA), and fetal bovine serum (10%; Gibco, Thermo Fisher Scientific, Waltham, MA, USA). The cells were maintained at 37 °C in a humidified 5% CO2 atmosphere. The cells were plated in 96-well plates at a density of 2000 cells per well and incubated for 24 h. Then, the cells were treated with selected compounds, positive control (50 μM etoposide), or vehicle control (0.5% DMSO) and incubated for 72 h. The CellTiter96 Aqueous One Solution Reagent (10 μL; Promega, Madison, WI, USA) was then added to each well, and the plate was incubated for another 3 h. Absorbance at 490 nm was measured with a BioTek Synergy 4 Hybrid Microplate Reader (Winooski, VT, USA). Independent experiments were repeated three times, each performed in triplicate. Statistical significance (p < 0.05) was calculated with two-tailed Student’s t test between treated groups and DMSO. IC50 values (concentration of the compound that gives a half-maximal response) are given as average values from the independent measurements and were determined using GraphPad Prism 5.0 software (San Diego, CA, USA)
For orientation: Tetrazolium dyes change colour on reduction, which living cells bring about.

Data set [2] has as its system MCF-7 cell line. In words: MTS cytotoxicity assay. It is filed as cell-based, human. The method, then: as §1
The subject of data set [3] is A. baumannii BM4652 and NMI clinical isolates. In words: MIC, wild-type, efflux-defective and MDR clinical isolates. It counts as cell-based. The settings on record: Acinetobacter baumannii.
The target of data set [4] is S. aureus DNA gyrase (Staphylococcus aureus, UniProt P0A0K8). In words: gel-based supercoiling assay.
Procedure: In all experiments, the activity of the
(§8) enzymes was determined prior to the testing of the compound and 1 unit (U) was defined as the
(§9) amount of enzyme required to just fully supercoil or decatenate the substrate. This amount of
(§10) enzyme was initially used in determination of control inhibitor activity. These experiments were
(§11) performed in duplicate. […] The final DMSO
(§12) concentration was 1% for all assays. All measurements were performed in quadruplicates. The
(§13) condition for each reaction were as follows:
− S. aureus gyrase supercoiling assay
(§14) 1 U of S. aureus gyrase was incubated with 0.5 µg of relaxed pBR322 DNA in a 30 µL reaction at
(§15) magnesium acetate, 10 mM DTT, 2 mM ATP, 500 mM potassium glutamate and 0.05 mg/mL
− S. aureus topo IV decatenation assay
(§16) 1 U of S. aureus topo IV was incubated with 20 µg kDNA in a 30 µL reaction at 37 °C for 30
(§17) mM ATP, 350 mM potassium glutamate and 0.05 mg/mL albumin.
(§18) − A. baumannii gyrase supercoiling assay
(§19) 1 U of A. baumannii gyrase was incubated with 0.5 µg of relaxed pBR322 DNA in a 30 µL reaction
(§20) blue), before being loaded on a 1.0% TAE gel run at 80V for 2 hours. Bands were visualised by
(§21) ethidium bromide staining for 20 minutes and destaining for 20 minutes. Gels were scanned using
(§22) documentation equipment (GeneGenius, Syngene, Cambridge, UK) and % inhibition levels were
(§23) measured by determining the relative fluorescence of the supercoiled band using gel scanning
software. […]
The target in data set [5] is A. baumannii topo IV (Acinetobacter baumannii, UniProt A0ABX6CMT0). In words: gel-based decatenation assay.
Procedure: In all experiments, the activity of the
as §8, §9, §10, §11, §12, §13
− S. aureus gyrase supercoiling assay
as §14, §15
− S. aureus topo IV decatenation assay
as §16, §17, §18, §19, §20, §21, §22, §23
software. […]
Data set [6] is described as follows: formulation solubility study. It is filed as physicochemical. The method, then: For the actual in vivo assay, a […] pH was used, and the compound was prepared in a formulation of 100 mM carbonate buffer at pH 8.4 with 20% hydroxypropyl β-cyclodextrin.
Solubility analysis was performed on an Acquity UPLC instrument (Waters, Milford, MA, USA). A Waters BEH C18 column (2.1 × 50 mm, 1.7 μm; Waters) was used at T = 40 °C, with the flow rate of 0.5 mL/min; PDA UV detection at λ = 256 nm; mobile phase A: 0.1% formic acid in ultrapure water; mobile phase B: 0.1% formic acid in acetonitrile. Gradient: 0–4 min, 5–100% B; 4–5 min, 100% B; 5–5.1 min, 100–5% B; 5.1–7 min, 5% B.

Data set [7] is described as follows: physchem. The conditions noted are these: pH 7.4.
Procedure: 0.5 mL of 67 mM phosphate
in a rotational shaker (400 rpm) at 23 °C. After the incubation an aliquot of 200 µL was
1 µL of the supernatant was transferred to 96-well plate in triplicate wells, diluted 100×
with acetonitrile/H2O (60/40) containing 50 nM warfarin as internal standard and analyzed
performed comparing to a separately constructed standard series (10 nM to 1000 nM).
shaker (900 rpm) at 37 °C. After the incubation an aliquot of 200 µL was transferred to a
conical glass insert and centrifuged for 30 min at 10 000 × g at 37 °C. The supernatant was
transferred to a new HPLC vial appropriately diluted (100×, 1000×, 5000×) with
acetonitrile/H2O (50/50) containing 50 nM warfarin as internal standard and analyzed by
performed comparing to a separately constructed standard curve between 3 nM to 20000
In data set [8] the test system is K. pneumoniae ATCC 13883. In words: MIC broth microdilution (CLSI). It counts as cell-based. The settings on record: Klebsiella pneumoniae, ATCC13883; ATCC 13883 used for 7l, 8b, 14, 16b, 16c. The method, then: (§2) MICs (Tables 1 and S1–S3) were determined with a standard serial broth microdilution technique according to Clinical and Laboratory Standards Institute (CLSI) guidelines.[45] Cation-adjusted Mueller Hinton broth 2 (MHBII) was used for bacterial growth under standard laboratory conditions and for antimicrobial susceptibility tests. MHBII broth was prepared by dissolving 22 g of MHBII powder [containing beef extract (3 g), acid hydrolysate of casein (17.5 g), and starch (1.5 g); Becton Dickinson and Co.] in 1 L of water. To prepare MHBII agar, 14 g of agar (Bacto; Molar Chemicals) was added to 1 L of broth.
(§3) Bacterial strains were inoculated onto MHBII agar plates and grown overnight at 37 °C. Next, three individual colonies from each strain were inoculated into 1 mL of MHBII medium and propagated at 37 °C overnight, with agitation at 250 rpm. For Enterococcus sp., the cells were plated in brain–heart infusion [(BHI) medium] agar plates, and BHI broth was used to determine the MICs. […] The highest final DMSO concentration in the experiments was 0.64% (in the case of the 64 μg/mL concentration of the inhibitor). Following the dilutions, each well was seeded with 5 × 10^4 bacterial cells (in 100 μL final volume). Each measurement was performed in three parallel replicates, and to avoid possible edge effects in the microwell plates, the outside rows (A, H) were filled with sterile medium. Following the inoculations, the plates were covered with the lids and wrapped in polyethylene plastic bags, to minimize evaporation but to allow O2 transfer. The plates were incubated at 37 °C under continuous shaking at 150 rpm for 18 h. After incubation, the OD600 of each well was measured using a microplate reader (Synergy 2; Biotek). The MICs were defined as the antibiotic concentrations which inhibited the growth of the bacterial cultures; that is, the drug concentration where the average OD600 increment of the three technical replicates was below 1.5-fold the background OD increment.
(§4) cMIC, minimum inhibitory concentration
(§5) Bacterial strains that were used: S. aureus ATCC 29213, S. aureus (MRSA) ATCC 43300, S. aureus (VISA) ATCC 700699, E. faecalis ATCC 29212, E. faecium ATCC 700221,
(§6) E. coli ATCC 25922, P. aeruginosa ATCC 27853 (PAO1 for compounds 7l, 8b, 14), A. baumannii ATCC 17978 (ATCC 19606 for compounds 7l, 8b, 14), K. pneumoniae ATCC
(§7) Measurements were performed according to the Clinical and Laboratory Standards Institute guidelines, with three independent measurements.

The test system of data set [9] is P. aeruginosa PAO1. In words: MIC broth microdilution (CLSI). It counts as cell-based. The conditions noted are these: Pseudomonas aeruginosa; PAO1 used for 7l, 8b, 14, 16b, 16c. The method, then: as §2, §3, §4, §5, §6, §7
For orientation: Broth dilution looks for growth in wells or tubes with falling amounts of substance.

The subject of data set [10] is A. baumannii ATCC 19606. In words: MIC broth microdilution (CLSI). It is filed as cell-based. The conditions noted are these: Acinetobacter baumannii, ATCC19606; ATCC 19606 used for 7l, 8b, 14, 16b, 16c; read-out: MIC. How it is done: as §2, §3, §4, §5, §6, §7
The subject of data set [11] is H. influenzae ATCC 49766. More on the design: method as in earlier work. The conditions noted are these: QC range for H. influenzae ATCC 49766, ref CLSI; cited from earlier work.

Converted amounts (≈) assume the structure as drawn.

With `Cc1[nH]c(C(=O)Nc2nc3c(N4CCOCC4)cc(C(=O)O)cc3s2)c(Cl)c1Cl` [7a, 2-(3,4-Dichloro-5-methyl-1H-pyrrole-2-carboxamido)-4-morpholinobenzo[d]thiazole-6-carboxylic Acid], the “cytotoxic concentration (no cytotoxicity up to)” value in data set [1] (with serum, 72 h) is greater than 100 µM; in data set [1] (without fetal bovine serum), greater than 100 µM; in data set [2] (with serum, 72 h), greater than 100 µM; in data set [2] (without fetal bovine serum), greater than 100 µM. Besides, the MIC was less than 0.125 µg/mL in [3] (A. baumannii BM4652, efflux-defective); 1 µg/mL (≈ 2.2 µM) in data set [3] (A. baumannii NMI 2692/14, clinical MDR); 1 µg/mL (≈ 2.2 µM) in data set [3] (A. baumannii NMI 2699/14, clinical MDR); 1 µg/mL (≈ 2.2 µM) in data set [3] (A. baumannii NMI 2704/14, clinical MDR). Also, the IC50 stood at 1.22 ± 0.04 nM in data set [4] and 120 ± 8.34 nM in data set [5]. The solubility in [6] (100 mM carbonate buffer with 20% CD, pH 8.0, 20% CD) was 3800 µg/mL (≈ 8350 µM); in data set [6] (100 mM carbonate buffer, pH 9.0, 20% hydroxypropyl β-cyclodextrin) it was 13200 µg/mL (≈ 29000 µM). In addition, the thermodynamic solubility at 24 h in [7] is 168 µM (≈ 76.5 µg/mL).
For the compound `Cc1[nH]c(C(=O)Nc2nc3c(N4CCOCC4)cc(C(=O)O)cc3s2)cc1F` [16b, 2-(4-Fluoro-5-methyl-1H-pyrrole-2-carboxamido)-4-morpholinobenzo[d]thiazole-6-carboxylic Acid], the MIC in data set [8], in [9] and in data set [10] was greater than 64 µg/mL in each case.
Consider `C[C@@H](O)[C@H]1C(=O)N2C(C(=O)O)=C(SCCNC=N)C[C@H]12` [Imipenem, imipenem], for which the “MIC, CLSI Range” value in [11] is 0,25 - 1 µg/mL.

Usually MIC stands for the lowest concentration that inhibits growth of the organism. As usually defined, the IC50 is the concentration that inhibits the measured activity by half. A high value points to a need for much substance. By solubility is commonly meant how much of the substance goes into solution per volume. As usually defined, the solubility (thermodynamic) is solubility found after equilibrating the solid with the medium.

These data come from publication PMC10041525, “New Dual Inhibitors of Bacterial Topoisomerases with Broad-Spectrum Antibacterial Activity and In Vivo Efficacy against Vancomycin-Intermediate Staphylococcus aureus” (Journal of Medicinal Chemistry, 2023).
